Read-outs that look alike come from different tables or passages of the source.
Tests used:
CVLP-stimulated T cells [1] = test: Restimulation of CVLP-stimulated T cells, HLA A2.01-positive donor (γ-interferon FACScan); type: cell-based, human; details: PBMCs incubated with 10 μg/ml antigen, FIG. 3
Experimental: The content of T cell-specific CD3 for each experiment is listed from left to right and the content of human γ interferon which is specific for activated cells is listed from bottom to top.
Human T cells (4×10^5) of an HLA A2.01-positive donor were stimulated with HPV16 LlΔC·E71-55 CVLPs at 37° C. for 8 weeks with weekly addition of 1 μg/ml CVLPs and 10^5 antigen-presenting cells (irradiated PMBCs), and harvested. The cells were then restimulated in 100 μl of medium at 37° C. with 10 μg/ml various antigens in the presence of 10 IU/ml IL2 and 0.5 μg/ml α-human CD28: • a) with CVLP-incubated PBMCs overnight • b) with L1 2022 peptide-incubated PBMCs overnight • c) with L1 2025 peptide (control peptide)incubated PBMCs overnight
After one hour, 1 μl of Golgi Plug was added. The cells were incubated at 37° C. for a further 5 hours. The cells were then fixed and permeabilized, and stained with α-hum CD3/PE, with α-hum CD4/Cychrome and with α-hum γ-interferon/FITC. The cells were examined in a FACScan calibur with respect to their label and the data were analyzed with the aid of Cellquest software.

[2] = biological target: T1, MHC-1 complexes of T2 cells (Homo sapiens, UniProt P04439, I119V/I121R/I166T/I218V/L300P/L318F/N151K/N90K/P208A/P217A/Q86G/Q94H/R138H/R169H/T345S); type: binding; details: 0, 10 or 100 μg/ml peptide overnight; BB7.2 antibody, FACS; FIG. 2
T1 construct: The unloaded MHC-1 molecules which are nevertheless present on the cell surface; host or cells: T2 cells

CVLP-stimulated T cells [3] = test: Restimulation of CVLP-stimulated T cells, HLA A1-positive donor, 20 mer peptides (γ-interferon FACScan); type: cell-based, human; details: for restimulation of CVLP-stimulated T cells (CD8-positive T cells reactive by γ-interferon expression): PBMCs with 10 μg/ml peptide, HLA A1-positive donor, FIG. 4
Experimental: (§1) The name of the particular peptide with which the PBMCs were loaded is listed from left to right. “None” represents PBMCs which were incubated only with buffer.
Human T cells (4×10^5) of an HLA A1-positive donor were stimulated with HPV16 L1ΔC·E71-55 CVLPs at 37° C. for 5 weeks with weekly addition of 1 μg/ml CVLPs and 10^5 antigen-presenting cells (irradiated PMBCs), and harvested. The cells were then restimulated in 100 μl of medium at 37° C. with 10 μg/ml of the peptides listed along the X axis of FIG. 4 in the presence of 10 IU/ml IL2. Cells incubated only with buffer served as a negative control.
(§2) After one hour, 1 μl of Monensin (300 μM) was added. The cells were incubated at 37° C. for a further 5 hours. The cells were then fixed and permeabilized, and stained with α-hum CD8/PE, with α-hum CD4/Cychrome and with α-hum γ-interferon/FITC. The cells were examined in a FACScan calibur with respect to their label and the data were analyzed with the aid of Cellquest software.

CVLP-specific T cells = test: Peptide-specific TNFα secretion by CVLP-stimulated T cells (WEHI cell/MTT readout); type: cell-based, human; details: PMBC + 10 μg/ml peptide, overnight, 10 IU/ml IL-2; HLA A2.01-positive donor; FIG. 1
From the text: T cells stimulated by specific, antigen-presenting PBLs release TNFα. This induces apoptosis in WEHI cells so that these cells are no longer able to process MTT into a brownish dye. Low absorption means low dye production and thus many apoptotic cells which had thus been exposed to a lot of TNFα so that the corresponding T cells had been stimulated. Thus, stimulation of T cells improves with decreasing absorption at 595 nm for a particular antigen.
Human T cells (4×10^5) of an HLA A2.01-positive donor were stimulated with HPV16 L1ΔC·E71-55 CVLPs at 37° C. for 8 weeks with weekly addition of 1 μg/ml CVLPs, 10^5 irradiated peripheral blood mononuclear cells (PMBCs) and 10 IU/ml IL-2, and harvested.
The cells were stimulated in 100 μl of medium at 37° C. overnight with different antigens (PMBC+E7 peptide; PMBC+HPV16 L1αC·E71-55 (CVLP); PMBC+5104, 5105, 5106, 5107, 5108, 5109, 5112, 5113, 10 μg/ml each) in the presence of 10 IU/ml IL-2. During this time, stimulated cells produce TNFα.
The following day, 50 μl of supernatant were removed, frozen, thawed again (in order to destroy possibly coremoved cells) and added to 50 μl of a cell suspension containing 0.9×10^6 WEHI cells, 2 μg/ml actinomycin D and 400 mM LiCl. The cells were incubated at 37° C. for 24 h. During this time, TNFα (if present in the supernatant) induces apoptosis of WEHI cells. Addition of 50 μl of a 2.5 mg/ml MTT solution in PBS stained non-apoptotic cells brown within three hours, whereas apoptotic cells remained yellow. All cells were lysed by adding 100 μl of lysis buffer (34% N,N-dimethylformamide, 20% sodium dodecyl sulfate) and incubating at 37° for at least 6 hours so that the dyes were released. Finally, absorption of the solution was measured at 595 nm.
Low absorption means low dye production and thus many apoptotic cells which had thus been exposed to a lot of TNFα so that the corresponding T cells had been stimulated. Thus, T-cell stimulation improved with decreasing absorption at 595 nm.

CVLP-stimulated T cells [4] = test: Restimulation of CVLP-stimulated T cells, non-HLA-classified donor, 20 mer peptides (γ-interferon FACScan); type: cell-based, human; details: for restimulation of CVLP-stimulated T cells (CD4-positive T cells reactive by γ-interferon expression): PBMCs with 10 μg/ml peptide, non-HLA-classified donor, FIG. 5; for Epitop-Information (epitope type): Table 2
Experimental: as §1
Human T cells (4×10^5) of a non-HLA-classified donor were stimulated with HPV16 L1ΔC·E71-55 CVLPs at 37° C. for 6 weeks with weekly addition of 1 μg/ml CVLPs and 10^5 antigen-presenting cells (irradiated PMBCs), and harvested. The cells were then restimulated in 100 μl of medium at 37° C. with 10 μg/ml of the peptides listed along the X axis of FIG. 5 in the presence of 10 IU/ml IL2. Cells incubated only with buffer served as a negative control.
as §2

HLA A1 molecules = details: Kast et al. (1994) Journal of Immunology 152, 3904-3912, cited from earlier work

GLQYRVFRI (Human papillomavirus type 16) [Peptide 2025]
restimulation of CVLP-stimulated T cells (γ interferon, CD3) (CVLP-stimulated T cells [1]): not control peptide-incubated PBMCs, effected restimulation

TLTADVMTYI (Human papillomavirus type 16) [Peptide 2018]
MHC molecules on the cell surface of T2 cells (fluorescence), indicating binding to MHC molecules [2]: significantly more MHC molecules on the cell surface

AEPDRAHYNIVTFCCXCDST (AEPDRAHYNIVTFCCKCDST; Human papillomavirus type 16) [Peptide 48]
restimulation of CVLP-stimulated T cells (CD8-positive T cells reactive by γ-interferon expression) (CVLP-stimulated T cells [3]): effected restimulation of CVLP-stimulated T cells

YDLQFIFQL (Human papillomavirus type 16) [Peptide 2020]
MHC molecules on the cell surface of T2 cells (fluorescence), indicating binding to MHC molecules [2]: significantly more MHC molecules on the cell surface

PLGRKFLLQAGMHGDTPTLH (Human papillomavirus type 16) [Peptide 43]
restimulation of CVLP-stimulated T cells (CD8-positive T cells reactive by γ-interferon expression) (CVLP-stimulated T cells [3]): effected restimulation of CVLP-stimulated T cells | Epitop-Information (HLA restriction) (CVLP-stimulated T cells [3]; Table 2): HLA A1 restr. | Epitop-Information (epitope type) (CVLP-stimulated T cells [3]; Table 2): cytotoxic epitope

ILEDWNFGL (Human papillomavirus type 16) [Peptide 5112]
MHC molecules on the cell surface of T2 cells (fluorescence), indicating binding to MHC molecules [2]: significantly more MHC molecules on the cell surface | stimulating CVLP-specific T cells (TNFα secretion, absorption at 595 nm) (CVLP-specific T cells): capable of stimulating CVLP-specific T cells

RLVWACVGV (Human papillomavirus type 16) [Peptide 5106]
MHC molecules on the cell surface of T2 cells (fluorescence), indicating binding to MHC molecules [2]: significantly more MHC molecules on the cell surface | stimulating CVLP-specific T cells (TNFα secretion, absorption at 595 nm) (CVLP-specific T cells): capable of stimulating CVLP-specific T cells

NLASSNYFPT (Human papillomavirus type 16) [Peptide 2017]
MHC molecules on the cell surface of T2 cells (fluorescence), indicating binding to MHC molecules [2]: significantly more MHC molecules on the cell surface

SLWLPSEATVYL [Peptide 2016]
MHC molecules on the cell surface of T2 cells (fluorescence), indicating binding to MHC molecules [2]: significantly more MHC molecules on the cell surface

ASSNYFPTPSGSMVTSDAQI [Peptide 27]
restimulation of CVLP-stimulated T cells (CD4-positive T cells reactive by γ-interferon expression) (CVLP-stimulated T cells [4]): effected restimulation of CVLP-stimulated T cells | Epitop-Information (epitope type) (CVLP-stimulated T cells [4]): T-helper epitope

ILVPKVSGL (Human papillomavirus type 16) [Peptide 5104]
stimulating CVLP-specific T cells (TNFα secretion, absorption at 595 nm) (CVLP-specific T cells): capable of stimulating CVLP-specific T cells

TLQANKSEV (Human papillomavirus type 16) [Peptide 5109]
MHC molecules on the cell surface of T2 cells (fluorescence), indicating binding to MHC molecules [2]: significantly more MHC molecules on the cell surface | stimulating CVLP-specific T cells (TNFα secretion, absorption at 595 nm) (CVLP-specific T cells): capable of stimulating CVLP-specific T cells

YLPPVPVSKV (Human papillomavirus type 16) [Peptide 2019]
MHC molecules on the cell surface of T2 cells (fluorescence), indicating binding to MHC molecules [2]: significantly more MHC molecules on the cell surface

EEDEIDGPAGQAEPDRAHYN (Human papillomavirus type 16) [Peptide 47]
restimulation of CVLP-stimulated T cells (CD8-positive T cells reactive by γ-interferon expression) (CVLP-stimulated T cells [3]): effected restimulation of CVLP-stimulated T cells

MHGDTPTLH (Human papillomavirus type 16) [9 mer contained in peptide 43]
binding to HLA A1 molecules (HLA A1 molecules): described as HLA A1-binding peptides | binding to HLA A1 molecules (HLA A1 molecules; listed as E7 peptide 43): can bind to HLA A1 molecules

ETTDLYCY (Human papillomavirus type 16) [peptide contained in peptide 45]
binding to HLA A1 molecules (HLA A1 molecules): described as HLA A1-binding peptide | binding to HLA A1 molecules (HLA A1 molecules; listed as E7 peptide 45): can bind to HLA A1 molecules

YLRREQMFV (Human papillomavirus type 16) [Peptide 5108]
stimulating CVLP-specific T cells (TNFα secretion, absorption at 595 nm) (CVLP-specific T cells): capable of stimulating CVLP-specific T cells

SMVTSDAQIFNKPYWLQRAQ [Peptide 28]
restimulation of CVLP-stimulated T cells (CD4-positive T cells reactive by γ-interferon expression) (CVLP-stimulated T cells [4]): effected restimulation of CVLP-stimulated T cells | Epitop-Information (epitope type) (CVLP-stimulated T cells [4]): T-helper epitope

QAEPDRAHYN (Human papillomavirus type 16) [10 mer contained in overlapping peptides 47 and 48]
binding to HLA A1 molecules (HLA A1 molecules): described as HLA A1-binding peptides | binding to HLA A1 molecules (HLA A1 molecules; listed as E7 peptide 47/48): can bind to HLA A1 molecules

ICWGNQLFV (Human papillomavirus type 16) [Peptide 2022]
MHC molecules on the cell surface of T2 cells (fluorescence), indicating binding to MHC molecules [2]: significantly more MHC molecules on the cell surface | restimulation of CVLP-stimulated T cells (γ interferon, CD3) (CVLP-stimulated T cells [1]): effected restimulation of CVLP-stimulated T cells

HLFNRAGTV (Human papillomavirus type 16) [Peptide 5107]
MHC molecules on the cell surface of T2 cells (fluorescence), indicating binding to MHC molecules [2]: significantly more MHC molecules on the cell surface | stimulating CVLP-specific T cells (TNFα secretion, absorption at 595 nm) (CVLP-specific T cells): capable of stimulating CVLP-specific T cells

Reference: US6838084B1, “Cytotoxic T-cell epitopes of the papilloma virus l1-protein and use thereof in diagnosis and therapy” (priority 1999, dated 2005)
